In a melting point compilation (Tetko et al.; mined from patent text by program, amines drawn as free bases though some values may be those of a salt) one finds melting point data, which are given here for 92 molecules.

Molecule `O=C(O)c1cccc(-c2cc(-c3ccc(Cl)cc3)on2)c1` came in with a melting point of 293 to 295 °C.

In turn, `CCCCCCCOc1ccc(-c2ccc(OCc3ccccc3)c(F)c2)cc1F` had a melting point of 98.7 to 100 °C.

Turning to `CNC(C)Cn1nc(Cl)c2cc3ccc(OC)cc3nc21` (configuration not stated), the melting point lay within 98 to 100 °C.

In turn, `O=C(NC(Cc1ccccc1)C(=O)O)c1ccc(-c2ccc(OCc3ccccc3)cc2)cc1` (configuration not stated) yielded a melting point of 302 °C.

On to `COc1cccc(C2(C=O)CCNCC2)c1OC`, for which the melting point came to 123 °C.

`COc1cc(COc2nn(C)cc2CC(=O)O)ccc1OCc1nc(-c2ccccc2)oc1C` showed a melting point of 153 to 154 °C.

For `CN1Cc2cncn2-c2cccnc2C1=O`, the melting point is 199 to 201 °C.

The molecule `c1ccc(-c2cc3ccncc3[nH]2)cc1` gave a melting point of 222 to 224 °C.

On to `CC(=O)N(C(=O)C1=NN(c2ccc(Cl)cc2)C(c2ccc(Cl)cc2)C1)c1ccc(C(F)(F)F)cc1` (configuration not stated), for which the melting point lay within 158 to 160 °C.

Take `NC(=O)CNc1ncccc1NC(=O)c1ccccc1`: the melting point lay within 194 to 195 °C.

Consider `CCCCOc1nc2ncnn2c2c1cnc1c2cnn1CC`, for which the melting point lay in the range of 140 to 142 °C.

`Cc1cc(-c2cc(O)c(SCc3ccccc3)c(=O)o2)cc(C)n1`: the melting point lay in the range of 88 to 90 °C.

Take `CCCCC(CO)Nc1ccc([N+](=O)[O-])cc1C(=O)NCc1ccc2c(c1)OCO2` (configuration not stated): the melting point was in the range of 112 to 115 °C.

Molecule `O=C(O)CSc1nc(-c2ccc(Cl)cc2)no1` displayed a melting point of 112 to 114 °C.

In turn, `Nc1cccc(Oc2ccc3c(c2)OCC(=O)N3)c1` gave a melting point of 209 to 210 °C.

`CC1=NN=C(c2cccc(N)c2)c2cc3c(cc2C1)OCO3` came in with a melting point of 190 to 191 °C.

`CCOC(=O)c1c(O)c2cscc2[nH]c1=O` had a melting point of 193 °C.

For the molecule `Cc1ccc(C)n1N(C)c1ccc(Cl)nn1`, the melting point fell in the range of 93 to 94.5 °C.

The molecule `O=C(Cc1ccccc1)NC1C(=O)N2CC(C(=O)OCc3ccc([N+](=O)[O-])cc3)SC12` (configuration not stated) showed a melting point of 181 to 183 °C.

As for `N#CC(C#N)CC(CC(F)(F)C(F)(F)C(F)(F)C(F)F)SC(F)(F)F` (configuration not stated), the melting point was 72 to 74 °C.

Turning to `CC1(C)CCC(=O)Nc2ccc(Nc3ncc(Cl)c(N[C@@H]4CCCC[C@H]4NS(C)(=O)=O)n3)cc21`, the melting point fell in the range of 170 to 185 °C.

`CC(NC(=O)Cc1cc(F)cc(F)c1)C(=O)NC1C(=O)NC(c2ccccc2)c2ccccc21` (configuration not stated) came in with a melting point of 244 °C.

Molecule `N#Cc1ccc2c(c1)C(=O)N(C1CCC(=O)NC1=O)C2=O` (configuration not stated) showed a melting point above 260 °C.

`CC(=O)Nc1nnc(SCC(O)(Cn2cncn2)c2ccc(Cl)cc2Cl)s1` (configuration not stated) returned a melting point of 132 °C.

Turning to `CSc1nc(CCC(F)(F)F)nc2sc(C)cc12`, the melting point was in the range of 81 to 83 °C.

Turning to `O=C1CN(c2ncc3ncnc(Nc4ccc(F)c(Cl)c4)c3n2)CCN1`, the melting point lay within 244 to 246 °C.

As to `N#Cc1ccc2c(c1)COC2(c1ccc(F)cc1)c1ccc(F)cc1`, the melting point lay within 105 to 106 °C.

Consider `CCOC(=O)C(Cc1ccc(OCC=C(C)c2ccc(-c3ccc(C(C)=CCOc4ccc(CC(OCC)C(=O)OCC)cc4)cc3)cc2)cc1)OCC` (configuration not stated), for which the melting point was in the range of 100 to 106 °C.

Molecule `OC[C@H]1C[C@@H](n2cnc3c(N[C@H]4CCN(c5ccc(C(F)(F)F)cc5)C4)ncnc32)[C@H](O)[C@@H]1O` had a melting point of 111 to 114 °C.

Consider `N#CC(=NO)c1cccnc1`, for which the melting point fell in the range of 234 to 238 °C.

The molecule `CCCC(C)NC(=O)c1ccc(C(=O)Nc2ccccc2NC(=O)OC(C)(C)C)s1` (configuration not stated) gave a melting point of 183 °C.

Regarding `C#Cc1cc2ccccc2[nH]1`, the melting point was in the range of 64 to 65 °C.

For `CC1(C)CCSc2cccc(CO)c21`, the melting point was 53 °C.

In turn, `CS(=O)(=O)CCOS(C)(=O)=O` returned a melting point of 55 to 57 °C.

The molecule `COc1cc(Nc2c(C#N)cnc3cc(Br)sc23)c(Cl)cc1Cl` yielded a melting point of 228 to 229 °C.

`O=C(OCc1ccccc1)N1CCC(C(=O)O)(c2ccccc2)CC1` displayed a melting point of 142 to 144 °C.

In the case of `CCCOc1ccc(C)c2c(=O)c(-c3ccc(OC)cc3)c[nH]c12`, the melting point fell in the range of 192 to 193 °C.

`Nc1ncnc2c1nc(Br)n2Cc1ccccc1` returned a melting point of 199 to 201 °C.

`CON=C(Cl)c1ccccc1S(N)(=O)=O` came in with a melting point of 155 to 158 °C.

The molecule `Nc1ccc(-c2ncccn2)cc1` showed a melting point of 236 to 238 °C.

On to `Cc1cc2c3c(c1)c1c(n3C(c3ccccc3)CO2)CCCC1=O` (configuration not stated), for which the melting point came to 171 °C.

`COc1nc(C)nc(NC(=O)NS(=O)(=O)c2c(C3=NOCCO3)csc2C)n1` had a melting point of 200 °C.

Molecule `Cc1cc(C)cc(Sc2cccc([N+](=O)[O-])c2C#N)c1` gave a melting point of 155 to 156 °C.

`Cc1nc2sc3c(c2c2[nH][nH]c(=O)c12)CCN(C(=O)OC(C)(C)C)C3` yielded a melting point above 300 °C.

`CCOC(=O)N1CCC(N=c2oc3ncnc(N)c3n2Cc2ccc(F)cc2)CC1`: the melting point came out at 175 °C.

As to `O=C(Nc1cc(C(F)(F)F)ccc1N1CCCCC1)c1ccncc1`, the melting point is 96 to 98 °C.

`CNC(=S)N1CCC23C=C[C@H](O)CC2Oc2c(OC)cc(Br)c(c23)C1` (some centres not stated) displayed a melting point of 183 to 185 °C.

In turn, `COC(=O)C1=C(N)CCC(C#N)(c2ccc(OC)c(OCC3CC3)c2)C1` (configuration not stated) registered a melting point of 164 to 165 °C.

Molecule `Cc1nn(C)c2cc(-c3ccc(F)cc3)nc(-c3ccc(S(C)(=O)=O)cc3)c12` displayed a melting point of 228 to 230 °C.

`COc1cccc(OCCCCC(=O)O)c1C=O` came in with a melting point of 99 to 101 °C.

On to `Cc1[nH]cnc1CSCCSC#N`, for which the melting point was 101 to 103 °C.

`COC(=O)c1ccc2c(c1)c(=O)n(Cc1ccccc1)c(=O)n2C` had a melting point of 179 °C.

With `c1ccc(-c2cccn3cnnc23)nc1`, the melting point was in the range of 212 to 214 °C.

`CCNC(=O)Nc1nc2ccc(Cc3ccccn3)cc2s1` registered a melting point of 184 to 185 °C.

In the case of `N#Cc1cc2c(nc1NC1CCCCC1)CCCC2=O`, the melting point is 143 to 145 °C.

Regarding `COc1cc2[nH]c(SCc3nccc(N4CCOCC4)c3F)nc2cc1C`, the melting point fell in the range of 124 to 126 °C.

Molecule `FC(F)(F)c1cnc(CNC(=S)c2ccccc2Cl)c(Cl)c1` returned a melting point of 102 to 103 °C.

In turn, `CCc1ccnc2c([N+](=O)[O-])cc(OC)cc12` showed a melting point of 158 to 159 °C.

As for `CC(=O)CC(=O)c1ccccn1`, the melting point lay in the range of 46 to 49 °C.

Molecule `CCc1[nH]n(C2CCCC2)c2nc(-c3ccc4c(c3)CC(C)O4)nc(=O)c1-2` (configuration not stated) came in with a melting point of 164 to 165 °C.

In turn, `CCCCCCCC(=O)Oc1c(OC)c(OC)c(OC(=O)CCCCCCC)c2cc(Cl)ccc12` had a melting point of 74 to 75 °C.

In the case of `Cc1snnc1SCC1=C(C(=O)OC(C)(C)C)N2C(=O)[C@@H](NC(=O)Cc3cccs3)[C@H]2SC1`, the melting point is 155 to 157 °C.

Molecule `CS(=O)(=O)CC1COCc2nc3c(N)nc4ccccc4c3n21` (configuration not stated) returned a melting point of 158 to 161 °C.

Consider `COc1ccc2c(c1)C(N)(CCC#N)C(=O)N2c1ccc(F)cc1` (configuration not stated), for which the melting point lay in the range of 136 to 138 °C.

Turning to `Nc1cc(=O)n(Cc2ccccc2)c(=O)n1-c1cccc([N+](=O)[O-])c1`, the melting point lay in the range of 256 to 260 °C.

`O=c1[nH]nc2c3c(cccc13)N=C(CN1CCCNCC1)N2`: the melting point fell in the range of 147 to 149 °C.

Turning to `ClCc1cc(OCc2ccc3ccccc3n2)no1`, the melting point fell in the range of 126 to 127 °C.

In the case of `COCNC(=S)n1nc(Oc2ccc(C#N)cc2C(F)(F)F)cc1C`, the melting point lay within 89 to 90 °C.

With `CC1(C)SC(=O)N(Cc2ccccc2[N+](=O)[O-])C1=O`, the melting point lay within 72.3 to 73.2 °C.

For `COc1ccc(Nc2nc(-c3ccccc3)c(C(=O)c3sc(Nc4ccc(OC)cc4)nc3-c3ccccc3)s2)cc1`, the melting point is above 285 °C.

The molecule `CC(C)(C)c1cccc(S(=O)(=O)Nc2ncc(C(F)(F)F)cc2I)c1` displayed a melting point of 135 °C.

`CCc1c(Cl)c2ccccn2c1C(=O)c1ccc(O)cc1`: the melting point is 179 °C.

Molecule `Cc1cc(C)c(C)c(P(=O)(c2ccc(F)cc2)c2ccc(F)cc2)c1C` returned a melting point of 171 to 173 °C.

For the molecule `COc1cc2c(cc1C(F)(F)F)N(C(=O)Nc1ccc(Sc3cccnc3)nc1)CC2`, the melting point was 208 to 210 °C.

Regarding `O=C(CCC(=O)N1CCC(c2ccc(F)cc2)CC1)c1ccc2c(c1)CCNCC2`, the melting point was 127 to 128 °C.

The molecule `CSc1ccc([N+](=O)[O-])c2nonc12` displayed a melting point of 118 to 120 °C.

On to `N#Cc1c(N2CCN(C(=O)c3cccs3)CC2)c2cccnc2n(Cc2ccccc2F)c1=O`, for which the melting point was determined as 286 °C.

The molecule `CC1(C)OC(=O)C(c2cccc3nnsc23)C(=O)O1` yielded a melting point of 170 to 172 °C.

With `CC#CCOc1ccc(S(=O)[C@@H](C(=O)NO)c2ccc(OC)cc2)cc1` (some centres not stated), the melting point was found to be 134 °C.

For the molecule `CCCCCCCCCCCCCCCCCCOC1OCC(CNC(=O)C(F)(F)F)O1` (configuration not stated), the melting point is 80 °C.

`CC(=O)Nc1cc(C)nn1C(C)(C)C` showed a melting point of 118 to 120 °C.

The molecule `CCCc1nc2c(N)nc3ccccc3c2n1CC(=O)OCC` had a melting point of 170 to 172 °C.

`Cc1noc(C)c1-c1ccc(F)cc1OC1SCC(O)C(O)C1O` (configuration not stated) yielded a melting point of 192 °C.

Turning to `CCCCCCCCCCCCC(C)N(c1ccccc1)P(=O)(O)O` (configuration not stated), the melting point was 60 to 64 °C.

The molecule `CC(CCCCCOCCc1ccc(N(C)C)cc1)NCc1c(CO)ccc(O)c1CO` (configuration not stated) displayed a melting point of 100 to 101 °C.

Molecule `CC(C)C[C@H](NC(=O)OC(C)(C)C)C(=O)NCC(=O)OCCCNc1cccc2c1C(=O)c1ccccc1C2=O` came in with a melting point of 86 °C.

In the case of `CS(=O)(=O)c1ccc2c(c1)C(=O)CC2`, the melting point came to 155 °C.

In turn, `O=C1Cc2cc(C(O)CN3CCC(O)(c4ccccc4)CC3)ccc2N1` (configuration not stated) yielded a melting point of 192 to 194 °C.

Turning to `CC(C)C(=O)NCCc1ccc(NC(=O)C=C2CC(C(=O)O)Nc3cc(Cl)cc(Cl)c32)cc1` (racemic), the melting point is 216 to 218 °C.

In turn, `CC1(C)C(Cl)C(=O)C1CC(Br)(Br)Br` (configuration not stated) came in with a melting point of 87 to 89 °C.

With `CC1CC(=O)NN=C1c1ccc(N)c(N)c1` (configuration not stated), the melting point was in the range of 195 to 196 °C.

On to `NS(=O)(=O)c1cc(Br)ccc1F`, for which the melting point is 153 to 154 °C.

For orientation: melting point means the temperature of the solid-liquid transition.
